Measured values from patent EP0039037A1, “Pyrimidylthio-ureas, medicines containing them and their use” (Beiersdorf Aktiengesellschaft, priority 1980, dated 1981).

Legend:
[1] = tested on: spontan hypertensive Ratten; assay: Blood-pressure-lowering effect in spontaneously hypertensive rats; assay type: in vivo; settings: 30 mg/kg peroral
Protocol: (§1) Es wurde die lipid- und blutdrucksenkende Wirkung von N-(2,4-DimethoxY-5-pyrimidyl)-thioharnstoff untersucht. Als Yersuchsziere. wurden hyperlipidämische Mäuse und spontan hypertensive Ratten verwendet.
Bei den Ratten wurde eine Dosis von 30 mg/kg peroral verabreicht, wobei eine Blutdrucksenkung von 30 % erzielt wurde.
Es wurde die blutdrucksenkende Wirkung von N-(4,6-Dimethoxy-2-methyl-5-pyrimidyl)-thioharnstoff bei spontan hypertensiven Ratten untersucht. Den Ratten wurde die Verbindung in einer Dosis von 30 mg/kg peroral verabreicht. Damit wurde eine Blutdrucksenkung von 30 % erzielt.

hyperlipidämische Mäuse = assay: Lipid-lowering effect in hyperlipidaemic mice (method analogous to Turner, Screening Methods in Pharmacology, and Garattini et al.); assay type: in vivo
Protocol: Die lipidsenkende Wirkung von N. (4,6-Dimethoxy-5-pyrimidyl)-thioharnstoff wurde an hyperliprdämischen Mausen analog einer Untersuchungsmethode, wie in "Screening Methods in Pharmacology", Robert A. Turner, 1965, Academic Press, New York and London, und Garattini et al, Arzneimittelforschung 9, 206 (1959), angegeben, untersucht. Die Verbindung wurde in einer Menge von 10 mg/kg peroral verabreicht. Es wurde eine Senkung des Cholesterinspiegels von 25 % und eine Senkung der Triglyceride von 27% erzielt.
as §1
Bei den Mäusen wurde eine Verabreichungsdosis von 100 mg/ kg peroral verwendet, wobei eine Senkung des Cholesterinspiegels von 38 % und eine Senkung der Triglyceride von 49 % erreicht wurde.

Row | Structure (SMILES) | Blutdrucksenkung [1] | Senkung der Triglyceride (hyperlipidämische Mäuse; 100 mg/kg peroral) | Senkung des Cholesterinspiegels (hyperlipidämische Mäuse; 100 mg/kg peroral) | Senkung der Triglyceride (hyperlipidämische Mäuse; 10 mg/kg peroral) | Senkung des Cholesterinspiegels (hyperlipidämische Mäuse; 10 mg/kg peroral)
1 | COc1ncc(NC(N)=S)c(OC)n1 [N-(2,4-Dimethoxy-5-pyrimidyl)-thioharnstoff] | 30% | 49% | 38% | – | –
2 | COc1ncnc(OC)c1NC(N)=S [N-(4,6-Dimethoxy-5-pyrimidyl)-thioharnstoff] | – | – | – | 27% | 25%
3 | COc1nc(C)nc(OC)c1NC(N)=S [N-(4,6-Dimethoxy-2-methyl-5-pyrimidyl)-thioharnstoff] | 30% | – | – | – | –
